# Key:
# Chymotrypsinogen B [1] = target: T1, Chymotrypsinogen B (Homo sapiens, UniProt P17538); assay: Time dependent loss of inhibitory activity toward alpha-chymotrypsin (1.6 uM concentration) at a pH of 7.8 by incubation method; no inactivation observed.
# Chymotrypsinogen B [2] = target: T1, Chymotrypsinogen B; assay: Irreversible inhibitory activity toward alpha-chymotrypsin (1.6 uM concentration) at a pH of 7.8 by incubation method. reversible competitive inactivation
# Chymotrypsinogen B [3] = target: T1, Chymotrypsinogen B; assay: Reversible inhibitory activity toward alpha-chymotrypsin (5 nM concentration) at a pH of 7.8 by progress curve method.
# Chymotrypsinogen B [4] = target: T1, Chymotrypsinogen B; assay: Reversible inhibitory activity toward alpha-chymotrypsin (5 nM concentration) at a pH of 7.8 by progress curve method.; no inactivation observed.
# Chymotrypsinogen B [5] = target: T1, Chymotrypsinogen B; assay: Irreversible inhibitory activity toward alpha-chymotrypsin (1.6 uM concentration) at a pH of 7.8 by incubation method.
# Chymotrypsinogen B [6] = target: T1, Chymotrypsinogen B
# Chymotrypsinogen B [7] = target: T1, Chymotrypsinogen B; remark: listed apart in the source
# Chymotrypsinogen B [8] = target: T1, Chymotrypsinogen B; assay: Reversible inhibitory activity toward alpha-chymotrypsin (5 nM concentration) at a pH of 7.8 by progress curve method; no inactivation observed.
# T1 sequence (P17538 34-164 limits assumed, other chains not shown): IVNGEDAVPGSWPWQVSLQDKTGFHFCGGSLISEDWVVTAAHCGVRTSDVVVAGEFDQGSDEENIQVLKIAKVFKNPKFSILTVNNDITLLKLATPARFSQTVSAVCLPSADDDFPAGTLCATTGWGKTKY
# T1 sequence (P17538 167-263 limits assumed, other chains not shown): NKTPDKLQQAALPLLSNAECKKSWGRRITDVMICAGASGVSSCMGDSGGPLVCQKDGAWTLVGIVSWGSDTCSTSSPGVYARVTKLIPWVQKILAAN
SMILES,K obs / 1 (Chymotrypsinogen B [1]),[I] (Chymotrypsinogen B [2]),Ki (Chymotrypsinogen B [3]),further results
COC(=O)C(F)[C@H](Cc1ccccc1)NC(C)=O (stereo in doubt; anti) [listing 1 of 2 here],No inactivation,6.25 mM,,
COC(=O)C(F)[C@H](Cc1ccccc1)NC(C)=O (stereo in doubt; syn) [listing 1 of 2 here],,,19.1 mM,
CC(=O)N[C@@H](Cc1ccccc1)C(C)(F)F,No inactivation,,,Ki (Chymotrypsinogen B [4]): No inactivation; [I] (Chymotrypsinogen B [5]): 4.85 mM
COC(=O)C(F)[C@H](Cc1ccccc1)NC(C)=O (stereo in doubt; anti) [listing 2 of 2 here],,,6.44 mM,
COC(=O)C(F)(F)[C@H](Cc1ccccc1)NC(C)=O,,6.86 mM,0.034 mM,K obs / 1 (Chymotrypsinogen B [6]): No inactivation
C=CC(F)(F)[C@H](Cc1ccccc1)NC(C)=O,,,0.46 mM,[I] (Chymotrypsinogen B [7]): 8.7 mM
COC(=O)C(F)[C@H](Cc1ccccc1)NC(C)=O (stereo in doubt; syn) [listing 2 of 2 here],No inactivation,4.58 mM,,
C=CC(F)[C@H](Cc1ccccc1)NC(C)=O (some centres not stated),No inactivation,,,Ki (Chymotrypsinogen B [8]): No inactivation; [I] (Chymotrypsinogen B [5]): 9.73 mM
